Assay results published in patent US20070105931A1, “Methods and compositions for inhibiting the proliferation of prostate cancer cells” (Mayo Foundation for Medical Education and Research, priority 2003, published 2007).
pIC50: −log10 of the molar value.

What was measured:
LNCaP cells = assay: Growth response (MTS cell proliferation assay), LNCaP; type: cell-based, human; conditions: MTS assay 6 days after treatment
Experimental: (§1) Human prostate cancer cell lines LNCaP (American Type Culture Collection, Manassas, Va.) and LAPC-4 (kindly provided by Dr. Charles L. Sawyers; Zhu et al., 1999, Endocrinology, 140:5451-4) were maintained in RPMI 1640 (Mediatech, Hercules, Calif.) containing 5% FBS (Biofluids, Rockville, Md.) at 37° C. and 5% CO2. To avoid potential interference of existing steroids in FBS, the media were first replaced by serum-free RPMI 1640 for 24 h. Cells were then cultured in RPMI 1640 with 5% charcoalstripped FBS supplemented with or without 1 nM Mib (New England Nuclear, Boston, Mass.), a nomnetabolizable, synthetic androgen.
(§2) Cells were plated in 24-well plates at 2×10^4 cells/well. […] MTS assay (Promega, Madison, Wis.) was performed to determine cell proliferation 6 days after the treatment. To measure secreted PSA and hK2 levels, 400 μl of spent medium from cells treated for 6 days were collected. PSA and hK2 proteins levels were determined using specific immunoassays (Mayo Immunochemical Core Facility). These measurements were used to the calculate 50% inhibitory concentration (IC50) of each of the NSAIDs.

PSA [1] = assay: Secreted PSA protein level (immunoassay), LNCaP; type: cell-based, human; conditions: for pIC50: LNCaP cells, secreted PSA in spent medium, treated 6 days
Experimental: (§3) FIG. 1 is a graph showing the effects of NSAIDs on the expression of PSA and hK2 proteins in prostate cancer cells ±1 nM Mib. […] PSA and hK2 values were normalized to growth response measured by a 3-(4,5-dimethylthiazol-2-yl)-2,5-diphenyltetrazolium bromide assay and expressed as a percentage of that group treated with Mib only. Error bars indicate the SE of four separate experiments.
as §1, §2

hK2 [2] = assay: Secreted hK2 protein level (immunoassay), LNCaP; type: cell-based, human; conditions: for pIC50: LNCaP cells, secreted hK2 in spent medium, treated 6 days
Experimental: as §3, §1, §2

LAPC-4 cells = assay: Growth response (MTS cell proliferation assay), LAPC-4; type: cell-based, human; conditions: MTS assay 6 days after treatment
Experimental: as §1, §2

PSA [3] = assay: Secreted PSA protein level (immunoassay), LAPC-4; type: cell-based, human; conditions: LAPC-4 cells, secreted PSA in spent medium, treated 6 days
Experimental: as §3, §1, §2

hK2 [4] = assay: Secreted hK2 protein level (immunoassay), LAPC-4; type: cell-based, human; conditions: LAPC-4 cells, secreted hK2 in spent medium, treated 6 days
Experimental: as §3, §1, §2

STAT3 [5] = assay: Western blot of STAT3 and phosphorylated STAT3 in IL6-treated LNCaP cells; type: cell-based, human
Experimental: Experiments were then performed to determine if STAT3 is phosphorylated following exposure to IL6.
The same cells were treated with 50 μM of a potent phosphatase inhibitor, peroxovanadate (POV), to determine if the nimesulide-mediated inhibition of phosphorylation of STAT3 by IL6 was due to activation of one or more phosphatases. […] Therefore, the inhibitory effect of nimesulide on phosphorylation of STAT3 by IL6 may be caused by activation of one or more phosphatases, because the inhibitor could partially reverse the reduced phosphorylation of STAT3 by nimesulide. It was noted that POV alone had no effect on phosphorylation of STAT3 in the absence of IL6.

FKBP51 = assay: Western blot of androgen-up-regulated FKBP51 protein; type: cell-based, human; conditions: 1 nM Mib
Experimental: (§4) Cells were seeded at 1×10^5 cells/plate in 100 mm dishes. […] The cells were collected by centrifugation and washed with nimesulide for 15 or 24 h. The cells were collected by centrifugation and washed with cold PBS. Cell lysates were prepared in radioimmunoprecipitation assay buffer (PBS containing 1% NP40, 0.5% sodium deoxycholate, 0.1% SDS plus freshly added protease inhibitors, 100 μg/ml phenylmethylsulfonyl fluoride, 30 μl/ml aprotinin, and 1 mM sodium orthovanadate) and used for Western blot analysis. The sample filters were immunoblotted with c-Jun, phospho-c-Jun (Cell Signaling, Beverly, Mass.), AR (PharMingen, San Diego, Calif.), and FKBP51 (a gift from Dr. D. O. Toft; Mayo Clinic) specific primary antibodies and horseradish peroxidase-conjugated secondary antibodies and visualized by enhanced chemiluminescence (Amersham Pharmacia, Piscataway, N.J.).

AR = assay: Western blot of AR protein expression; type: cell-based, human; conditions: concentrations used in the transfections
Experimental: as §4

c-Jun = assay: Western blot of c-Jun protein in LNCaP cells; type: cell-based, human; conditions: 24 h of treatment
Experimental: as §4

androgen receptor = assay: IL6-activated hK2 ARE-SV40-pGL3 reporter, transient transfection; type: cell-based, human; conditions: celecoxib 50 μM, nimesulide 100 μM; IL6 50 ng/ml; androgen 1 nM
Experimental: Experiments were performed to determine whether or not IL6 increased expression of PSA and/or hK2.

[6] = test system: AR/ARE (hK2 3xARE-SV40 minimal promoter); assay: hK2 3xARE luciferase reporter assay in LNCaP cells; conditions: P<0.05, 24 h
AR promoter (−1380/+577) = assay: AR promoter-luciferase reporter assay in LNCaP cells; conditions: 1 nM Mib, 24 h, FIG. 3A
6-kb PSA promoter = assay: PSA promoter-luciferase reporter assay in LNCaP cells; conditions: concentration as low as 25 μM, 1 nM Mib, 24 h
STAT3 [7] = assay: STAT3 responsive element luciferase reporter in LNCaP cells; conditions: celecoxib 50 μM, nimesulide 100 μM, IL6 25-50 ng/ml, six hours
[8] = FIG. 1, dose-dependent, LNCaP and LAPC-4 cells, 1 nM Mib

pIC50 (LNCaP cells; Homo sapiens, 144 h) | pIC50 (PSA [1]; Homo sapiens, 144 h) | pIC50 (hK2 [2]; Homo sapiens, 144 h) | pIC50 (PSA [3]; Homo sapiens, LAPC4, 144 h) | pIC50 (hK2 [4]; Homo sapiens, 144 h) | Compound | pIC50 (LAPC-4 cells; Homo sapiens, LAPC4, 144 h) | other results
< 3.52 | 3.68 | 3.64 |  |  | CC(C(=O)O)c1cccc(Oc2ccccc2)c1 (centres unmarked) [Fenoprofen] |  | 
 | 4.70 | 4.53 | 4.54 | 4.36 | Cc1ccc(-c2cc(C(F)(F)F)nn2-c2ccc(S(N)(=O)=O)cc2)cc1 [Celecoxib] | 4.35 | 
< 3.00 | < 3.00 | < 3.00 | < 3.00 | < 3.00 | CC(=O)Oc1ccccc1C(=O)O [Aspirin] | < 3.00 | 
< 3.52 | 3.69 | 3.55 | 3.63 | 3.66 | CC(C(=O)O)c1ccc(-c2ccccc2)c(F)c1 (centres unmarked) [Flurbiprofen] | 3.46 | 
< 3.52 | 3.65 | 3.57 | 3.69 | 3.68 | COc1ccc2c(c1)c(CC(=O)O)c(C)n2C(=O)c1ccc(Cl)cc1 [Indomethacin] | 3.77 | 
< 3.52 | < 3.52 | < 3.52 | < 3.52 | < 3.52 | CC(C(=O)O)c1cccc(C(=O)c2ccccc2)c1 (centres unmarked) [Ketoprofen] | < 3.52 | 
 |  |  |  |  | peroxovanadate [POV] |  | phosphorylation of STAT3 in the absence of IL6 (STAT3 [5]; 50 μM POV alone): no effect
< 3.52 | < 3.52 | < 3.52 | < 3.52 | < 3.52 | CC1=C(CC(=O)O)c2cc(F)ccc2/C1=C\c1ccc([S+](C)[O-])cc1 (centres unmarked) [Sulindac] | < 3.52 | 
3.71 | 3.52 | 3.42 | < 3.52 | < 3.52 | Cc1cnc(NC(=O)C2=C(O)c3ccccc3S(=O)(=O)N2C)s1 [Meloxicam] | 4.04 | 
4.42 | 4.57 | 4.64 | 4.12 | 4.21 | CS(=O)(=O)Nc1ccc([N+](=O)[O-])cc1Oc1ccccc1 [Nimesulide] | 3.98 | expression of PSA (PSA [1]; [8]): suppressed; expression of hK2 (hK2 [2]; [8]): suppressed; androgen-up-regulated FKBP51 protein expression (FKBP51): alleviated; AR protein expression (AR): reduced; c-Jun protein (c-Jun): strongly induced; androgen receptor-mediated expression of the reporter gene activated by IL6 or IL6 plus androgen (androgen receptor): inhibit; phosphorylation of STAT3 by IL6 (STAT3 [5]; celecoxib 50 μM, nimesulide 100 μM, IL6 25-50 ng/ml): significantly suppressed; AR/ARE-mediated gene expression (hK2 3xARE reporter) [6]: significantly reduced; transcription activities of the AR promoter (−1380/+577) (AR promoter (−1380/+577)): repressed; androgen-induced PSA promoter activity (6-kb PSA promoter): significantly reduced; STAT3-specific responsive element-mediated luciferase expression activated by IL6 (STAT3 [7]): inhibited
< 3.00 | 3.11 | 3.07 | 3.06 | 3.10 | CC(C)Cc1ccc(C(C)C(=O)O)cc1 (centres unmarked) [Ibuprofen] | 3.13 | 
 |  |  |  |  | CC1=C(CC(=O)O)c2cc(F)ccc2/C1=C\c1ccc(S(C)(=O)=O)cc1 [Sulindac sulfone] |  | pIC50 (LNCaP cells): < 3.52; pIC50 (PSA [1]): 3.69; pIC50 (hK2 [2]): 4.01; pIC50 (LAPC-4 cells): 3.60; pIC50 (PSA [3]): 3.71; pIC50 (hK2 [4]): < 3.52
